The source of these data is US20200360471A1, “METHODS OF TREATING AND PREVENTING VIRAL INFECTIONS” (priority 2017, published 2020).

Experiment [1] has as its system TLR7. Put plainly: Ongoing inflammation in PBMC cultures: imiquimod 3 hrs followed by omiganan 21 hrs. The experiment is classed as cell-based, human. The note with it: imiquimod alone, PBMC. As for the experimental part:
(§1) Primary cell cultures were prepared in RPMI including 5% autologous plasma. Isolated PBMC cells were cultured in 96-well plates at a density of 0.5×10^6cells/well at 37° C., under humidified 5% CO2.
(§2) IL-1β, TNFα, IL-6 and IL-8 were measured simultaneously with a fixed electrochemoluminescence platform based on the sandwich ELISA principle of capture and detection antibodies, produced by MESO SCALE DISCOVERY (MSD, MESO SCALE QUICKPLEX SQ120). The applied assay was the V-PLEX PLUS pro-inflammatory cytokine panel II, including IL-1β, TNFα, IL-6 and IL-8. This assay includes manufacturer-provided control samples with indicated nominal values for comparison. These lyophilized controls, i.e. freeze-dried controls for IL-1β, TNFα, IL-6, IL-8, were prepared freshly at the time of use. QC samples were prepared from the calibrator at 3 different concentrations along the standard curve as multiple aliquots from a single batch and maintained at −20° C. Low, medium and high concentration controls were included in every multiplex assay run to control intra- and inter-assay variation. V-PLEX panels are specific for the detection of human chemokines and cytokines, and combinations have been validated by the manufacturer, to ensure no cross-reactivity.
Briefly, PBMC primary cultures were prepared from 4 donors. […] The readouts for the following cytokine and chemokine release were measured: IL-1β, IL-2, IL-4, IL-6, IL-8 HA, IL-8, IL-12p70, IL-13, IFN-γ, and TNF-α were measured. The cultures were prepared in duplicate.

The next experiment deals with TLR3/RIG-1/Mda5. Put plainly: polyI:C-induced cytokine responses in PBMC cultures with peptide pre-treatment. The experiment is classed as cell-based, human. As to conditions: 5 or 25 μg/mL peptide, 30 min pre-treatment, 24 hrs. The procedure:
as §1, §2
(§3) IFNα was quantified by a sandwich ELISA based on specific capture and detection antibodies for various matrices (MABTECH), according to the manufacturer's instructions. QC samples were prepared from the calibrator at 3 different concentrations along the standard curve as multiple aliquots from a single batch and maintained at −20° C.
(§4) IFNβ was quantified by a sandwich ELISA based on specific capture and detection antibodies for various matrices (PBL ASSAY SCIENCE), according to the manufacturer's instructions. QC samples were prepared from the calibrator at 3 different concentrations along the standard curve as multiple aliquots from a single batch and maintained at −20° C. freezer.
(§5) Briefly, PBMC primary cultures were prepared from 4 healthy donors (2 males, 2 females) as described above. […] The cultures were prepared in duplicate and the readouts for pan-IFNα and IFNβ (ELISA) were measured once. Five-point concentration-response curves were constructed for the various treatment conditions in the PBMC cultures, freshly isolated from 4 subjects.

Experiment [2] relates to TLR7. Briefly: imiquimod-induced cytokine responses in PBMC cultures with peptide pre-treatment. It counts as cell-based, human. As for the experimental part:
as §1, §2, §3, §4, §5

The subject of the next experiment is HPVS PsV. The note with it: read-out: IC50, inhibition of uptake of HPVS PsV; PsV 1:6000 dilution, 293TT cells. The procedure: Pseudovirus (PsV) of HPVS was prepared using method described by Buck et al, (Journal of Virology, January 2004; 751-757) and used as a model HPV in this study. The PsV stocks were prepared by co-transfecting human 293TT cells with HPVS viral plasmid p5Shell containing codon-modified papillomavirus capsid genes for L1 and L2 proteins, and pcLucF reporter plasmid containing the luciferase gene for detecting viral infection. The cell lysates containing the capsidized virus was used as the PsV stock. Optimal PsV dilution factor was determined based on the luciferase activity in 293TT cells infected with serially diluted HPVS PsV.
Data were collected on a Molecular Devices Flexstation 3 Microplate Reader using Softmax Pro v5.4.4. Data analysis was performed on Prism software using four parameter logistic model. […] Furin Inhibitor I was used as a positive control for HPVS PsV inhibition since it blocks the viral entry into host cells.
Two runs were performed for each dilution level.

The test system of experiment [3] is toll-like receptor 3 (TLR3) pathways / RIG-1/Mda5. Put plainly: Qualification of the polyI:C PBMC challenge (cytokine release, 24 hrs). It counts as cell-based, human. As for the experimental part: Peripheral Blood Mononuclear Cells (PBMCs) were isolated from sodium heparinized blood samples from healthy donors using SEPMATE with LYMPHOPREP ([…] TECHNOLOGIES) based on ficoll density centrifugation. Primary cell cultures were prepared in RPMI including 5% autologous plasma. Isolated PBMC cells were cultured in 96-well plates at a density of 0.5×10^6cells/well at 37° C., under humidified 5% CO2.
IL-1β, TNFα, IL-6 and IL-8 were measured simultaneously with a fixed electrochemoluminescence platform based on the sandwich ELISA principle of capture and detection antibodies, produced by MESO SCALE DISCOVERY (MSD, MESO SCALE QUICKPLEX SQ120). The applied assay was the V-PLEX PLUS pro-inflammatory cytokine panel II, including IL-1β, TNFα, IL-6 and IL-8. This assay includes manufacturer-provided control samples with indicated nominal values for comparison. These lyophilized controls, i.e. freeze-dried controls for IL-1β, TNFα, IL-6, IL-8, were prepared freshly at the time of use. […]
IFNα was quantified by a sandwich ELISA based on specific capture and detection antibodies for various matrices (MABTECH), according to the manufacturer's instructions. […]
IFNβ was quantified by a sandwich ELISA based on specific capture and detection antibodies for various matrices (PBL ASSAY SCIENCE), according to the manufacturer's instructions. […]

Setting [4] is: 5 or 25 μg/mL peptide, 30 min pre-treatment, 24 hrs.
Setting [5] is: right-shift of imiquimod concentration response curves.

Peptide text beside a SMILES is read from it. * marks the point of attachment. Decanoyl = CCCCCCCCCC(=O)*; CH2Cl = ClC*

In the case of `CC(C)Cn1cnc2c(N)nc3ccccc3c21` [Imiquimod, imiquimod], in the experiment with TLR7 [1], the “concentration-effect relationship for IL-6 and TNF-α” value is listed as “bell-shaped”; the “imiquimod concentration inducing IL-6 release” value is reported as “exceeding 0.4 μg/ml”; the “imiquimod concentration inducing IL-8 release” value is listed as “exceeding 0.4 μg/ml”; the “imiquimod concentration inducing TNF-α release” value is listed as “exceeding 0.4 μg/ml”. Besides, the “imiquimod concentration needed for IL-10 release” value in the experiment on TLR7 [1] was “exceeding 2 μg/ml”.
Take “LLGDFFRKSKEKIGKEFKRIVQRIKDFLRNLVPRTES (LLGDFFRKSKEKIGKEFKRIVQRIKDFLRNLVPRTES; LL-37 peptide) [antimicrobial peptide belonging to the cathelicidin family, synthesized by ANASPEC]”: in the experiment with TLR3/RIG-1/Mda5, the “IL-6 responses to polyI:C (TLR3/RIG-1/Mda5)” value is “did not significantly affect”; the “TNFα responses to polyI:C (TLR3/RIG-1/Mda5)” value is recorded as “did not significantly affect”; the “polyI:C-driven IL-1β release” value was “did not significantly affect”; the “spontaneous and polyI:C-driven IL-8 release” value is “strongly inhibited”. In addition, in the experiment on TLR3/RIG-1/Mda5 (PBMC of 4 donors), the “interferon responses induced by polyI:C stimulation” value was “enhanced”. In addition, in the experiment with TLR7 [2] (setting [4]), the “IL-6 responses to imiquimod (TLR7)” value is “inhibited” and the “TNFα responses to imiquimod (TLR7)” value is recorded as “inhibited”. Also, the “interferon responses in the presence of imiquimod” value in the experiment with TLR7 [2] (5 or 25 μg/mL peptide, 30 min pre-treatment, 24 hrs, PBMC of 4 donors) was “induced strong interferon responses”. Also, in the experiment on TLR7 [2] (setting [5]), the “IL-1(3 responses to imiquimod (TLR7))” value was “inhibited” and the “IL-8 responses to imiquimod (TLR7)” value was “inhibited”.
On to `CCCCCCCCCC(=O)N[C@@H](CCCN=C(N)N)C(=O)N[C@H](C(=O)N[C@@H](CCCCN)C(=O)N[C@@H](CCCN=C(N)N)C(=O)CCl)C(C)C` [Furin Inhibitor I, reference compound] (Decanoyl-RVKR-CH2Cl), for which the IC50 (as a rule, the midpoint of a concentration-inhibition curve) in the experiment with HPVS PsV came out at 200 nM.
Turning to PolyI:C, the “PBMC response (cytokines)” value in experiment [3] (absence of the transfection carrier Lyovec) is listed as “mild PBMC response”; in experiment [3] (presence of Lyovec transfection carrier), “substantial polyI:C-driven responses”.
